Experimental data reported in US10329295B2, “Pyrrolotriazine inhibitors of IRAK4 activity” (MERCK SHARP & DOHME CORP., priority 2015, dated 2019).
Counter-ions that a name gives are not always drawn.

Biological target: GST tagged IRAK4 (Homo sapiens (Human), UniProt Q9NWZ3)
Experiment: IRAK4 Kinase Assay (IMAP fluorescence polarization)
Format: biochemical
Settings: 0.5 nM GST tagged IRAK4, 100 μM ATP, 30 minutes at 25° C.
In short: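 Phosphorylation of a fluorescent peptide (100 nM) was detected by IMAP nanoparticle binding as increased fluorescence polarization. The enzyme was GST-tagged IRAK4 at 0.5 nM, with 100 μM ATP, 1 mM MgCl2 and Tris-HCl pH 7.2. ATP-initiated reactions ran 30 minutes at 25° C.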

GST tagged IRAK4, sequence (Q9NWZ3 whole entry): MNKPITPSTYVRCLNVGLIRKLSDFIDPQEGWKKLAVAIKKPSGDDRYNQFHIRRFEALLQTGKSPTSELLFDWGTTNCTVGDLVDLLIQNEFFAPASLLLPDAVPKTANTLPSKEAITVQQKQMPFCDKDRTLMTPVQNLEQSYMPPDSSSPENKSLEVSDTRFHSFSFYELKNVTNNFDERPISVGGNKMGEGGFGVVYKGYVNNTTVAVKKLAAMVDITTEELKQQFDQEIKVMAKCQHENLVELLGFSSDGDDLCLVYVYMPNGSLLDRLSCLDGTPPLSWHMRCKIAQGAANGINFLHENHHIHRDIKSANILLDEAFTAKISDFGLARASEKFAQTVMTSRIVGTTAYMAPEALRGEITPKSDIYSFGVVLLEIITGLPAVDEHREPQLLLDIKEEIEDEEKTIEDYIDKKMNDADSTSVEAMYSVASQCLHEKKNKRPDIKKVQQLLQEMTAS

In the case of Cn1cc(NC(=O)c2ccc3cnc(N4C[C@H]5CC[C@@H]4CN5)nn23)c(C(F)(F)F)n1 (single isomer, unassigned) [Example 171, 2-[(1S,4S)- or (1R,4R)-2,5-diazabicyclo[2.2.2]oct-2-yl]-N-[1-methyl-3-(trifluoromethyl)-1H-pyrazol-4-yl]pyrrolo[2,1-f][1,2,4]triazine-7-carboxamide], the IC50 is reported as 0.064 µM.
With N#Cc1cscc1NC(=O)c1ccc2cnc(N3CCC[C@@H](N)C3)nn12 [Example 144, 2-[(3R)-3-aminopiperidin-1-yl]-N-(4-cyanothiophen-3-yl)pyrrolo[2,1-f][1,2,4]triazine-7-carboxamide trifluoroacetate] the IC50 was 0.018 µM.
For Cn1cc(NC(=O)c2ccc3cnc(N4CCC[C@H](N)C4)nn23)c(C#N)n1 [Example 123, 2-[(3S)-3-aminopiperidin-1-yl]-N-(3-cyano-1-methyl-1H-pyrazol-4-yl)pyrrolo[2,1-f][1,2,4]triazine-7-carboxamide trifluoroacetate], the IC50 was 0.001 µM.
In the case of Cn1cc(NC(=O)c2ccc3cnc(N[C@@H]4CCCC[C@@H]4O)nn23)c(C(F)(F)F)n1 [Example 3, 2-{[(1R,2S)-2-hydroxycyclohexyl]amino}-N-[1-methyl-3-(trifluoromethyl)-1H-pyrazol-4-yl]pyrrolo[2,1-f][1,2,4]triazine-7-carboxamide trifluoroacetate], the IC50 is reported as 0.322 µM.
Work on N#Cc1sccc1NC(=O)c1ccc2cnc(N3CCC[C@@H](N)C3)nn12 [Example 141, 2-[(3R)-3-aminopiperidin-1-yl]-N-(2-cyanothiophen-3-yl)pyrrolo[2,1-f][1,2,4]triazine-7-carboxamide trifluoroacetate] yielded an IC50 of 0.026 µM.
N#Cc1ccccc1NC(=O)c1ccc2cnc(N[C@@H]3CCCC[C@@H]3N)nn12 [Example 50, 2-{[(1R,2S)-2-aminocyclohexyl]amino}-N-(2-cyanophenyl)pyrrolo[2,1-f][1,2,4]triazine-7-carboxamide trifluoroacetate] was tested, and the IC50 was 0.011 µM.
In the case of N#Cc1cscc1NC(=O)c1ccc2cnc(N[C@@H]3CCCC[C@@H]3N)nn12 [Example 13, 2-{[(1R,2S)-2-aminocyclohexyl]amino}-N-(4-cyanothiophen-3-yl)pyrrolo[2,1-f][1,2,4]triazine-7-carboxamide trifluoroacetate], the IC50 is reported as 0.004 µM.
Work on N#Cc1ccccc1NC(=O)c1ccc2cnc(N3CCNCC4(CC4)C3)nn12 [Example 76, N-(2-cyanophenyl)-2-(5,8-diazaspiro[2.6]non-5-yl)pyrrolo[2,1-f][1,2,4]triazine-7-carboxamide trifluoroacetate] yielded an IC50 of 0.97 µM.
Cn1cc(NC(=O)c2ccc3cnc(N[C@@H]4CC(F)(F)CC[C@@H]4N)nn23)c(C(F)(F)F)n1 (single isomer, unassigned) [Example 131, 2-{[(1S,2R)- or (1R,2S)-2-amino-5,5-difluorocyclohexyl]amino}-N-[1-methyl-3-(trifluoromethyl)-1H-pyrazol-4-yl]pyrrolo[2,1-f][1,2,4]triazine-7-carboxamide trifluoroacetate] was tested, and the IC50 was 0.004 µM.
For Cn1cc(NC(=O)c2ccc3cnc(N4C[C@H](N)C[C@H](F)C4)nn23)c(C(F)F)n1 [Example 163, 2-[(3R,5S)-3-amino-5-fluoropiperidin-1-yl]-N-[3-(difluoromethyl)-1-methyl-1H-pyrazol-4-yl]pyrrolo[2,1-f][1,2,4]triazine-7-carboxamide trifluoroacetate], the IC50 was 0.0007 µM.
Work on O=C(Nc1ccccc1C(F)F)c1ccc2cnc(N3CCCNCC3)nn12 [Example 57, 2-(1,4-diazepan-1-yl)-N-[2-(difluoromethyl)phenyl]-pyrrolo[2,1-f][1,2,4]triazine-7-carboxamide trifluoroacetate] yielded an IC50 of 6.57 µM.
In the case of N[C@@H]1[C@H](Nc2ncc3ccc(C(=O)Nc4cscc4C(F)F)n3n2)CCCC1(F)F [Example 93, 2-{[(1R,2R)-2-amino-3,3-difluorocyclohexyl]amino}-N-[4-(difluoromethyl)thiophen-3-yl]pyrrolo[2,1-f][1,2,4]triazine-7-carboxamide trifluoroacetate], the IC50 is reported as 0.298 µM.
Cn1cc(NC(=O)c2ccc3cnc(N4C[C@@H]5CNC[C@H]4C5)nn23)c(C(F)F)n1 (single isomer, unassigned) [Example 119, 2-[(1S,5R)- or (1R,5S)-3,6-diazabicyclo[3.2.1]oct-6-yl]-N-[3-(difluoromethyl)-1-methyl-1H-pyrazol-4-yl]pyrrolo[2,1-f][1,2,4]triazine-7-carboxamide] was tested, and the IC50 was 0.002 µM.
In the case of N[C@H]1CCCC[C@H]1Nc1ncc2ccc(C(=O)Nc3ccccc3C(F)F)n2n1 [Example 56, 2-{[(1R,2S)-2-aminocyclohexyl]amino}-N-[2-(difluoromethyl)phenyl]-pyrrolo[2,1-f][1,2,4]triazine-7-carboxamide trifluoroacetate], the IC50 is reported as 0.088 µM.
Compound Cn1cc(NC(=O)c2ccc3cnc(N4C[C@@H](N)C[C@@H](F)C4)nn23)c(C(F)(F)F)n1 [Example 148, 2-[(3S,5R)-3-amino-5-fluoropiperidin-1-yl]-N-[1-methyl-3-(trifluoromethyl)-1H-pyrazol-4-yl]pyrrolo[2,1-f][1,2,4]triazine-7-carboxamide] has an IC50 of 0.02 µM.
Cn1cc(NC(=O)c2ccc3cnc(N4C[C@H]5CNC[C@@H]4C5)nn23)c(C#N)n1 (single isomer, unassigned) [Example 134, N-(3-cyano-1-methyl-1H-pyrazol-4-yl)-2-[(1R,5S)- or (1S,5R)-3,6-diazabicyclo[3.2.1]oct-6-yl]pyrrolo[2,1-f][1,2,4]triazine-7-carboxamide] gave an IC50 of 0.174 µM.
For O=C(Nc1ccccc1Cl)c1ccc2cnc(N3C[C@H]4CC[C@@H]3CN4)nn12 (single isomer, unassigned) [Example 55, N-(2-chlorophenyl)-2-[(1S,4S)- or (1R,4R)-2,5-diazabicyclo[2.2.2]oct-2-yl]pyrrolo[2,1-f][1,2,4]triazine-7-carboxamide trifluoroacetate], the IC50 was 0.557 µM.
Cn1cc(NC(=O)c2ccc3cnc(N4CCNCC4)nn23)c(C(F)F)n1 [Example 11, N-[3-(difluoromethyl)-1-methyl-1H-pyrazol-4-yl]-2-piperazin-1-ylpyrrolo[2,1-f][1,2,4]triazine-7-carboxamide trifluoroacetate] was tested, and the IC50 was 0.003 µM.
N#Cc1sccc1NC(=O)c1ccc2cnc(N3CC4CCC3CN4)nn12 (stereo not shown) [Example 22, N-(2-cyanothiophen-3-yl)-2-(2,5-diazabicyclo[2.2.2]oct-2-yl)pyrrolo[2,1-f][1,2,4]triazine-7-carboxamide trifluoroacetate] was tested, and the IC50 was 0.399 µM.
Work on Cn1cc(NC(=O)c2ccc3cnc(N4C[C@H]5CC[C@@H]4CN5)nn23)c(Br)n1 (single isomer, unassigned) [Example 64, N-(3-bromo-1-methyl-1H-pyrazol-4-yl)-2-[(1S,4S)- or (1R,4R)-2,5-diazabicyclo[2.2.2]oct-2-yl]pyrrolo[2,1-f][1,2,4]triazine-7-carboxamide trifluoroacetate] yielded an IC50 of 0.122 µM.
Cn1cc(NC(=O)c2ccc3cnc(N4C[C@H]5CNC[C@@H]4C5)nn23)c(C(F)F)n1 (single isomer, unassigned) [Example 120, 2-[(1S,5R)- or (1R,5S)-3,6-diazabicyclo[3.2.1]oct-6-yl]-N-[3-(difluoromethyl)-1-methyl-1H-pyrazol-4-yl]pyrrolo[2,1-f][1,2,4]triazine-7-carboxamide] gave an IC50 of 0.015 µM.
N[C@@H]1[C@H](Nc2ncc3ccc(C(=O)Nc4ccsc4Cl)n3n2)CCCC1(F)F [Example 97, 2-{[(1R,2R)-2-amino-3,3-difluorocyclohexyl]amino}-N-(2-chlorothiophen-3-yl)pyrrolo[2,1-f][1,2,4]triazine-7-carboxamide trifluoroacetate] showed an IC50 of 1.91 µM.
With O=C(Nc1ccccc1C(F)F)c1ccc2cnc(N3C[C@H]4CC[C@@H]3CN4)nn12 (single isomer, unassigned) [Example 62, 2-[(1S,4S)- or (1R,4R)-2,5-diazabicyclo[2.2.2]oct-2-yl]-N-[2-(difluoromethyl)phenyl]-pyrrolo[2,1-f][1,2,4]triazine-7-carboxamide trifluoroacetate] the IC50 was 0.944 µM.
With Cn1cc(NC(=O)c2ccc3cnc(N4C[C@@H]5CC[C@H]4CN5)nn23)c(C#N)n1 (single isomer, unassigned) [Example 46, N-(3-cyano-1-methyl-1H-pyrazol-4-yl)-2-[(1S,4S)- or (1R,4R)-2,5-diazabicyclo[2.2.2]oct-2-yl]pyrrolo[2,1-f][1,2,4]triazine-7-carboxamide trifluoroacetate] the IC50 was 0.072 µM.
With N#Cc1ccccc1NC(=O)c1ccc2cnc(N3C[C@@H]4CC[C@H]3CN4)nn12 (single isomer, unassigned) [Example 74, N-(2-cyanophenyl)-2-[(1S,4S)- or (1R,4R)-2,5-diazabicyclo[2.2.2]oct-2-yl]pyrrolo[2,1-f][1,2,4]triazine-7-carboxamide trifluoroacetate] the IC50 was 0.85 µM.
Compound Cn1cc(NC(=O)c2ccc3cnc(N[C@H]4CCC(F)(F)C[C@H]4N)nn23)c(C(F)(F)F)n1 (single isomer, unassigned) [Example 128, 2-{[(1S,2R)- or (1R,2S)-2-amino-4,4-difluorocyclohexyl]amino}-N-[1-methyl-3-(trifluoromethyl)-1H-pyrazol-4-yl]pyrrolo[2,1-f][1,2,4]triazine-7-carboxamide trifluoroacetate] has an IC50 of 0.046 µM.
Cn1cc(NC(=O)c2ccc3cnc(N[C@H]4CCC(F)(F)C[C@H]4N)nn23)c(C(F)F)n1 (single isomer, unassigned) [Example 129, 2-{[(1S,2R)- or (1R,2S)-2-amino-4,4-difluorocyclohexyl]amino}-N-[3-(difluoromethyl)-1-methyl-1H-pyrazol-4-yl]pyrrolo[2,1-f][1,2,4]triazine-7-carboxamide] showed an IC50 of 3.65 µM.
Cn1cc(NC(=O)c2ccc3cnc(N[C@@H]4CCCC(F)(F)[C@@H]4N)nn23)c(C(F)(F)F)n1 [Example 8, 2-{[(1R,2R)-2-amino-3,3-difluorocyclohexyl]amino}-N-[1-methyl-3-(trifluoromethyl)-1H-pyrazol-4-yl]pyrrolo[2,1-f][1,2,4]triazine-7-carboxamide trifluoroacetate] showed an IC50 of 0.276 µM.
